Source: PMC4232510, “Identification of Functionally Important Residues of the Rat P2X4 Receptor by Alanine Scanning Mutagenesis of the Dorsal Fin and Left Flipper Domains” (PLoS ONE, 2014)
Substitutions are numbered along the chain they refer to.

Assays:
Test in all cases: whole-cell patch clamp, HEK293T cells expressing mutant
Assay type in all cases: cell-based
Details in all cases: for relative responsiveness: 100 µM agonist 2 s, relative to ATP (100%)
rP2X4R L214A mutant = target: T1, rP2X4R L214A mutant (Rattus norvegicus, UniProt P51577, L214A)
T1 construct: expressed in transfected cells; host or cells: HEK293T
T1 sequence (P51577 1-388 L214A): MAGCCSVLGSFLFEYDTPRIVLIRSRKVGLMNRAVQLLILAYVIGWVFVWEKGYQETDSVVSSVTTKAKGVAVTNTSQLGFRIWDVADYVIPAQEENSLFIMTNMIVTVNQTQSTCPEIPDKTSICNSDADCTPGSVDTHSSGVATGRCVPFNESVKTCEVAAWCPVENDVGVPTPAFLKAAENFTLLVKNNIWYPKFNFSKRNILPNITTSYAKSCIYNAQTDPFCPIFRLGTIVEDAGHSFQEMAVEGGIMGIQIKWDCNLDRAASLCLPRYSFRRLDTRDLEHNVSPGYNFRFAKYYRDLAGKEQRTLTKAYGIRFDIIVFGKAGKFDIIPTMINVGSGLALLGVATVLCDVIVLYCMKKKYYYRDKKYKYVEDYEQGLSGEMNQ
Protocol: (§1) To express the recombinant channels, we used human embryonic kidney (HEK) 293T cells (American Type Culture Collection, Rockville, MD, USA) grown in Dulbecco modified Eagle’s medium (Thermo Fisher Scientific, Waltham, MA) supplemented with 10% fetal bovine serum (Sigma-Aldrich, St Louis, MO), 50 U/ml penicillin and 50 µg/ml streptomycin (both Thermo Fisher Scientific, Waltham, MA) in a humidified 5% CO2 and 95% air at 37°C. Cells were cultured in 75 cm^2 plastic culture flasks (NUNC, Rochester, NY) for 36–72 hours until reaching 80–95% confluence. Before the day of transfection, the cells were plated on 35 mm culture dishes (Sarstedt, Newton, NC) and incubated at 37°C for at least 24 h. Transfection was done using 2 µg of either WT or mutant receptor DNA with 2 µl of JetPrime reagent in 2 ml of Dulbecco modified Eagle’s medium, according to manufacturer’s instructions (PolyPlus-transfection, Illkirch, France). Transfected cells were identified by the fluorescence signal of EGFP using the Olympus IX71 inverted research microscope with fluorescence illuminators (Model IX71; Olympus, Melville, NY).
(§2) cDNAs encoding the sequences of the rP2X4 and mutated subunits were subcloned into the pIRES2-EGFP vector (Clontech, Mountain View, CA, USA). To generate the mutants, oligonucleotides (synthesized and provided by VBC-Genomics, Vienna, Austria or Sigma Aldrich) containing specific mutagenesis mismatches were introduced into the rP2X4/pIRES2-EGFP template using PfU Ultra DNA polymerase (Thermo Fisher Scientific). A High-Speed Plasmid Mini Kit (Geneaid, Taipei City, Taiwan) was used to isolate the plasmids for transfection. Dye terminator cycle sequencing (ABI PRISM 3100, Applied Biosystems, Foster City, CA) was used to identify and verify the presence of the mutations. The sequencing was performed by the DNA Sequencing Laboratory, Institute of Microbiology, ASCR, Prague.
(§3) ATP-induced currents were recorded from whole cells clamped to −60 mV using an Axopatch 200B patch-clamp amplifier (Axon Instruments, Union City, CA). The recordings were captured and stored using the Digidata 1322A and pClamp9 software package (Axon Instruments). During the experiments, the cell culture was perfused with a bath solution containing: 142 mM NaCl, 3 mM KCl, 2 mM CaCl2, 1 mM MgCl2, 10 mM 4-(2-Hydroxyethyl)piperazine-1-ethanesulfonic acid (HEPES) and 10 mM D-glucose, adjusted to pH 7.3 with 1 M NaOH. The patch electrodes were filled with a solution containing: 154 mM CsCl, 11 mM EGTA and 10 mM HEPES, adjusted to pH 7.2 with 1.6 M CsOH. The whole-cell configuration was used to abolish the influence of natively present metabotropic receptors for ATP and we used intracellular cesium to block any kind of possible background potassium conductance. Potency of ATP was measured based on the activation of naïve (not previously stimulated) receptors using a short (2–5 s) application of various concentrations of ATP. The results are expressed as molar concentration of ATP required to produce 50% of the maximal response (EC50). One or two responses were recorded from one cell, if not otherwise stated, and responses from different cells were pooled. The maximum current amplitude (Imax) was measured in response to application of supramaximal concentrations (100–1000 µM) of ATP. Responsiveness to P2XR agonists 2-MeS-ATP, ATPγS, BzATP, and α,β-meATP, all applied in 100 µM concentration, was expressed as percentage of response in comparison to 100 µM ATP treatment for selected mutants. In all mutants, the whole cell currents were also measured in the presence of 3 µM IVM, which was dissolved in dimethyl sulfoxide, stored in stock solutions at 10 mM, and diluted to required concentrations in bath solution in the day of experiment. The control and drug containing solutions were applied via a rapid (exchange time 30–40 ms) perfusion system (RSC-200, BIOLOGIC, Claix, France). All other chemicals are from Sigma-Aldrich. […]

rP2X4R T281A mutant = target: T2, rP2X4R T281A mutant (Rattus norvegicus, UniProt P51577, T281A)
T2 construct: expressed in transfected cells; host or cells: HEK293T
T2 sequence (P51577 1-388 T281A): T1 sequence (P51577 1-388 L214A) with A214L, T281A
Protocol: as §1, §2, §3

rP2X4R T210A mutant = target: T3, rP2X4R T210A mutant (Rattus norvegicus, UniProt P51577, T210A)
T3 construct: expressed in transfected cells; host or cells: HEK293T
T3 sequence (P51577 1-388 T210A): T1 sequence (P51577 1-388 L214A) with T210A, A214L
Protocol: as §1, §2, §3

[1] = 100 µM ATP 60 s, biexponential fit
[2] = contribution of τdes2, 100 µM ATP 60 s
[3] = decay after removal of 1 or 3 µM ATP, 3 µM IVM
[4] = naïve receptors, 2–5 s application
[5] = 3 µM IVM 4-6 min vs IVM-untreated

Q: `CSc1nc(N)c2ncn([C@@H]3O[C@H](COP(=O)(O)OP(=O)(O)OP(=O)(O)O)[C@@H](O)[C@H]3O)c2n1` [2-MeS-ATP, 2-(Methylthio)adenosine 5′-triphosphate] was tested. Which relative responsiveness (rP2X4R L214A mutant) did it give?
A: 21.4±1.7 %

Q: And the relative responsiveness (rP2X4R T281A mutant)?
A: 69.6±5.1%

Q: What about the relative responsiveness (rP2X4R T210A mutant) of the same compound?
A: 59.2±6.9%

Q: For “2′(3′-O-(4-Benzoylbenzoyl)adenosine 5′-triphosphate [BzATP]”, which relative responsiveness (rP2X4R L214A mutant) is on record?
A: 5.9±0.5 %

Q: And the relative responsiveness (rP2X4R T281A mutant)?
A: 26.7±3.9%

Q: And the relative responsiveness (rP2X4R T210A mutant)?
A: 23.9±3.2 %

Q: How did the “EC50 rightward shift compared to WT” value (rP2X4R L214A mutant) turn out when `Nc1ncnc2c1ncn2[C@@H]1O[C@H](COP(=O)(O)OP(=O)(O)OP(=O)(O)O)[C@@H](O)[C@H]1O` [ATP] was run?
A: approximately 10 fold

Q: And the τdes1 (rP2X4R L214A mutant; [1])?
A: 1.9 ± 0.4 s

Q: What about the τdes2 (rP2X4R L214A mutant; [1]) of the same compound?
A: 12.6 ± 1.9 s

Q: And the Imax (rP2X4R L214A mutant; 100–1000 µM ATP)?
A: 1.0 ± 0.2 nA

Q: What about the “Imax+IVM” value (rP2X4R L214A mutant; ATP after 3 µM IVM 4-6 min) of the same compound?
A: 3.9 ± 0.8 nA

Q: And the “A2 /(A1+A2)” value (rP2X4R L214A mutant; [2])?
A: 62 ± 3%

Q: What about the “τoff +IVM” value (rP2X4R L214A mutant; [3]) of the same compound?
A: 3.4 ± 0.6 s

Q: What about the EC50 (rP2X4R L214A mutant; [4]) of the same compound?
A: 25 ± 5.7 µM

Q: And the τdes (rP2X4R L214A mutant; weighted, 100 µM ATP 60 s)?
A: 8.8 ± 1.3 s

Q: What about the τdes1 (rP2X4R T281A mutant; [1]) of the same compound?
A: 2.4 ± 0.4 s

Q: And the τdes2 (rP2X4R T281A mutant; [1])?
A: 15.6 ± 2.3 s

Q: And the Imax (rP2X4R T281A mutant; 100–1000 µM ATP)?
A: 2.3 ± 0.3 nA

Q: What about the “Imax+IVM” value (rP2X4R T281A mutant; ATP after 3 µM IVM 4-6 min) of the same compound?
A: 4.8 ± 0.9 nA

Q: And the “A2 /(A1+A2)” value (rP2X4R T281A mutant; [2])?
A: 72 ± 12%

Q: What about the “τoff +IVM” value (rP2X4R T281A mutant; [3]) of the same compound?
A: 13 ± 1.0 s

Q: And the EC50 (rP2X4R T281A mutant; [4])?
A: 8.2 ± 2.8 µM

Q: And the τdes (rP2X4R T281A mutant; weighted, 100 µM ATP 60 s)?
A: 12 ± 2.4 s

Q: And the τdes1 (rP2X4R T210A mutant; [1])?
A: 2.0 ± 0.3 s

Q: And the τdes2 (rP2X4R T210A mutant; [1])?
A: 14.4 ± 2.5 s

Q: And the Imax (rP2X4R T210A mutant; 100–1000 µM ATP)?
A: 1.9 ± 0.2 nA

Q: And the “Imax+IVM” value (rP2X4R T210A mutant; ATP after 3 µM IVM 4-6 min)?
A: 3.5 ± 0.6 nA

Q: And the “A2 /(A1+A2)” value (rP2X4R T210A mutant; [2])?
A: 52 ± 8%

Q: And the “τoff +IVM” value (rP2X4R T210A mutant; [3])?
A: 5.5 ± 0.4 s

Q: And the EC50 (rP2X4R T210A mutant; [4])?
A: 26 ± 2.6 µM

Q: What about the τdes (rP2X4R T210A mutant; weighted, 100 µM ATP 60 s) of the same compound?
A: 8.9 ± 2.1 s

Q: What does the source list for `Nc1ncnc2c1ncn2C1OC(COP(=O)(O)CP(=O)(O)OP(=O)(O)O)C(O)C1O` (stereo not drawn) [α,β-meATP, α,β-methyleneadenosine 5′-triphosphate]?
A: relative responsiveness (rP2X4R L214A mutant): 6.5±1.5 %; relative responsiveness (rP2X4R T281A mutant): 28.2±5.5%; relative responsiveness (rP2X4R T210A mutant): 8.8±2.3 %

Q: For `Nc1ncnc2c1ncn2[C@@H]1O[C@H](CO[P@](=O)(O)O[P@](=O)(O)O[P@@](=O)(O)S)[C@@H](O)[C@H]1O` [ATPγS, Adenosine 5′-(γ-thio)triphosphate], which relative responsiveness (rP2X4R L214A mutant) is on record?
A: 7.9±2.0 %

Q: What about the relative responsiveness (rP2X4R T281A mutant) of the same compound?
A: 50.2±5.9%

Q: What about the relative responsiveness (rP2X4R T210A mutant) of the same compound?
A: 34.2±4.1 %

Q: For `CC[C@H](C)[C@H]1O[C@]2(CC[C@@H]1C)C[C@@H]1C[C@@H](C/C=C(\C)[C@@H](O[C@H]3C[C@H](OC)[C@@H](O[C@H]4C[C@H](OC)[C@@H](O)[C@H](C)O4)[C@H](C)O3)[C@@H](C)/C=C/C=C3\CO[C@@H]4[C@H](O)C(C)=C[C@@H](C(=O)O1)[C@]34O)O2` [IVM, ivermectin], which “Fold incr. Imax” value (rP2X4R L214A mutant; [5]) is on record?
A: 3.7 ± 0.7 fold

Q: What about the “Fold incr. Imax” value (rP2X4R T281A mutant; [5]) of the same compound?
A: 2.1 ± 0.2 fold

Q: And the “Fold incr. Imax” value (rP2X4R T210A mutant; [5])?
A: 1.8 ± 0.2 fold
